ChEMBL document CHEMBL5512599, “Synthetic non-toxic anti-biofilm agents as a strategy in combating bacterial resistance” (Eur J Med Chem, 2023)
pIC50: −log10 of the molar value. Converted amounts (≈) assume the structure as drawn. Each block holds one compound with its values, some of them ahead of it.

What was measured:
Staphylococcus aureus [1] = assay: Antibiofilm activity against Staphylococcus aureus ATCC 33862 assessed as reduction in biofilm formation at 20 uM incubated for 24 hrs by absorbance based assay relative to control; format: functional; design: scale not given: the % may be the effect or the level left
Pseudomonas aeruginosa [2] = assay: Antibiofilm activity against Pseudomonas aeruginosa ATCC 10145 assessed as reduction in biofilm formation at 20 uM incubated for 24 hrs by absorbance based assay relative to control; format: functional; design: scale not given: the % may be the effect or the level left
Pseudomonas aeruginosa [3] = assay: Antibiofilm activity against Pseudomonas aeruginosa PA14 assessed as inhibition of biofilm formation incubated for 24 hrs by microscopic analysis; format: functional, organism-based; conditions: PA14, 24 h
Enterococcus faecalis [4] = assay: Antibacterial activity against Enterococcus faecalis ATCC 29212 assessed as bacterial growth inhibition incubated for 15 to 18 hrs by Muller hinton broth based dilution assay; format: functional; conditions: time 15-18 hrs
Enterococcus faecalis [5] = assay: Antibiofilm activity against Enterococcus faecalis ATCC 29212 assessed as biofilm eradication incubated for 20 mins by crystal violet staining based analysis; format: functional
Staphylococcus aureus [6] = assay: Antibiofilm activity against methicillin-resistant Staphylococcus aureus assessed as inhibition of biofilm formation incubated for overnight by crystal violet staining based microtiter plate assay; format: functional, organism-based
Pseudomonas aeruginosa [7] = assay: Antibiofilm activity against Pseudomonas aeruginosa PAO1 assessed as inhibition of biofilm formation incubated at 15 uM relative to control; format: functional; design: scale not given: the % may be the effect or the level left
Pseudomonas aeruginosa [8] = assay: Antibiofilm activity against Pseudomonas aeruginosa PAO1 assessed as inhibition of biofilm formation incubated at 100 uM incubated for 24 hrs by crystal violet staining based analysis relative to control; format: functional; design: scale not given: the % may be the effect or the level left
[9] = Inhibition of Quorum sensing system Las in Pseudomonas aeruginosa PAO1 assessed as reduction in interaction with LasR regulator
Staphylococcus aureus [10] = assay: Antibacterial activity against Staphylococcus aureus ATCC 6538 assessed as reduction in bacterial growth incubated for 18 to 24 hrs by broth microdilution method; format: functional; conditions: time 18-24 hrs
Staphylococcus aureus [11] = assay: Antibacterial activity against Staphylococcus aureus ATCC 29213 assessed as reduction in bacterial growth incubated for 18 to 24 hrs by broth microdilution method; format: functional; conditions: time 18-24 hrs
Staphylococcus aureus [12] = assay: Antibacterial activity against Staphylococcus aureus ATCC 25923 assessed as reduction in bacterial growth incubated for 18 to 24 hrs by broth microdilution method; format: functional; conditions: time 18-24 hrs
[13] = Inhibition of Staphylococcus aureus sortase A by FRET assay
[14] = tested on: Staphylococcus epidermidis; assay: Antibacterial activity against Staphylococcus epidermidis RP62A assessed as reduction in bacterial growth incubated for 18 to 20 hrs by broth microdilution assay; format: functional; conditions: time 18-20 hrs
[15] = Inhibition of quorum sensing system in Pseudomonas aeruginosa PAO1 assessed as inhibition of pyocyanin production at 256 ug/ml incubated for 24 hrs by absorbance based assay
Pseudomonas aeruginosa [16] = assay: Antibiofilm activity against Pseudomonas aeruginosa PAO1 assessed as inhibition of biofilm formation at 100 uM relative to control; format: functional; design: scale not given: the % may be the effect or the level left
Staphylococcus aureus [17] = assay: Antibiofilm activity against Methicillin-resistant Staphylococcus aureus ATCC BAA-4A assessed as inhibition of biofilm formation; format: functional, organism-based

Structure (SMILES): CCCCCCCCCCCCCCCC(=O)Nc1cc(=O)c2ccccc2[nH]1
Activity (Staphylococcus aureus [1]): >=50%
Activity (Pseudomonas aeruginosa [2]): >=50%

Structure (SMILES): CCCCCCCCCCCc1c[nH]c(N)n1
pIC50 (Pseudomonas aeruginosa [3]): 4.72

Structure (SMILES): N#Cc1ccc(-c2csc(-c3ccc(-c4cnc(-c5ccccc5)s4)cc3)n2)cc1
MIC (Enterococcus faecalis [4]): 0.062 µg/mL (≈ 0.147 µM)
MBEC (Enterococcus faecalis [5]): 0.002 µg/mL

Structure (SMILES): CCCCCc1ccc(C(=O)NCCn2cc(CCCCCc3c[nH]c(N)n3)nn2)cc1
pIC50 (Staphylococcus aureus [6]): > 5.14

Structure (SMILES): CCCCCCCCCCCCCC(=O)Nc1cc(=O)c2ccccc2[nH]1
Activity (Staphylococcus aureus [1]): >=50%
Activity (Pseudomonas aeruginosa [2]): >=50%

Structure (SMILES): O=C(CSC(=S)N[C@@H]1CCOC1=O)CC(=O)Nc1cccc2ccccc12
Activity (Pseudomonas aeruginosa [7]): 35%

Structure (SMILES): CCCCCCCCCCCC(=O)Nc1c(N)[nH]c2ccccc2c1=O
Activity (Staphylococcus aureus [1]): >=50%
Activity (Pseudomonas aeruginosa [2]): >=50%

Structure (SMILES): O=C(CCCNc1ccc(F)cc1)NC1CCOC1=O (configuration not stated)
Activity (Pseudomonas aeruginosa [8]): 70%

Structure (SMILES): CCCCCCCC(=O)NC1CCCC1
pIC50 [9]: 3.60

Structure (SMILES): CCCCCCN(CCCCCC)C(=O)CCCc1c[nH]c(N)n1
pIC50 (Pseudomonas aeruginosa [3]): 4.22

Structure (SMILES): Cc1cccc(NC(=O)CC(=O)CSC(=S)N[C@@H]2CCOC2=O)c1
Activity (Pseudomonas aeruginosa [7]): 35%

Structure (SMILES): CCCCCCCCCCCC(=O)Nc1cc(=O)c2ccccc2[nH]1
Activity (Staphylococcus aureus [1]): >=50%
Activity (Pseudomonas aeruginosa [2]): >=50%

Structure (SMILES): CCCCOc1ccc(/C=C(\C)Cn2cc(CCCCCc3c[nH]c(N)n3)nn2)cc1
pIC50 (Staphylococcus aureus [6]): > 5.00

Structure (SMILES): CCCCCc1ccc(C(=O)NCCn2cc(CCCCCc3[nH]cnc3-c3ccoc3)nn2)cc1
pIC50 (Staphylococcus aureus [17]): 5.43

Structure (SMILES): C/C(=C\c1ccc2ccccc2c1)Cn1cc(CCCCCc2c[nH]c(N)n2)nn1
pIC50 (Staphylococcus aureus [6]): > 5.00

Structure (SMILES): CCCCCc1ccc(C(=O)NCCn2cc(CCCCCc3[nH]cnc3-c3ccc4c(c3)OCO4)nn2)cc1
pIC50 (Staphylococcus aureus [17]): 5.43

Structure (SMILES): O=C(CCCNc1ccc(Cl)cc1)NC1CCOC1=O (configuration not stated)
Activity (Pseudomonas aeruginosa [8]): 70%

Structure (SMILES): CCCCCc1ccc(C(=O)NCCn2cc(CCCCCc3[nH]cnc3-c3cnc4ccccc4c3)nn2)cc1
pIC50 (Staphylococcus aureus [17]): 5.43

Structure (SMILES): CCCCCCCCCCCCCCCC(=O)Nc1c(N)[nH]c2ccccc2c1=O
Activity (Staphylococcus aureus [1]): >=50%
Activity (Pseudomonas aeruginosa [2]): >=50%

Structure (SMILES): CCCCCCCCCCCCCC(=O)Nc1c(N)[nH]c2ccccc2c1=O
Activity (Staphylococcus aureus [1]): >=50%
Activity (Pseudomonas aeruginosa [2]): >=50%

Structure (SMILES): COc1cccc(NC(=O)CC(=O)CSC(=S)N[C@@H]2CCOC2=O)c1
Activity (Pseudomonas aeruginosa [7]): 35%

Structure (SMILES): CCCCCCCCCC(=O)NC1CCCC1 [N-CYCLOPENTYLDECANAMIDE]
pIC50 [9]: 4.10

Further lines, with some results ahead:

MIC (Enterococcus faecalis [4]): 0.032 µg/mL (≈ 0.0742 µM)
Structure (SMILES): Clc1ccc(-c2csc(-c3ccc(-c4cnc(-c5ccccc5)s4)cc3)n2)cc1
MBEC (Enterococcus faecalis [5]): 0.016 µg/mL

MIC (Staphylococcus aureus [10]): > 270 µM
MIC (Staphylococcus aureus [11]): > 270 µM
MIC (Staphylococcus aureus [12]): > 270 µM
pIC50 [13]: 4.30
MIC [14]: > 270 µM
Structure (SMILES): CC(=O)/C(=N\Nc1ccc(Cl)c(Cl)c1)C(=O)O

MIC (Staphylococcus aureus [10]): > 270 µM
MIC (Staphylococcus aureus [11]): > 270 µM
MIC (Staphylococcus aureus [12]): > 270 µM
pIC50 [13]: 4.24
MIC [14]: > 270 µM
Structure (SMILES): CC(=O)/C(=N\Nc1ccc([N+](=O)[O-])cc1)C(=O)O

MIC (Enterococcus faecalis [4]): 0.125 µg/mL (≈ 0.315 µM)
Structure (SMILES): c1ccc(-c2csc(-c3ccc(-c4cnc(-c5ccccc5)s4)cc3)n2)cc1
MBEC (Enterococcus faecalis [5]): 0.002 µg/mL

MIC (Enterococcus faecalis [4]): 0.062 µg/mL (≈ 0.145 µM)
Structure (SMILES): COc1ccc(-c2csc(-c3ccc(-c4cnc(-c5ccccc5)s4)cc3)n2)cc1
MBEC (Enterococcus faecalis [5]): 0.004 µg/mL

pIC50 [15]: 4.77
Structure (SMILES): N#Cc1ccnc(C(F)F)c1
Activity (Pseudomonas aeruginosa [16]): 73%

pIC50 (Pseudomonas aeruginosa [3]): 4.37
Structure (SMILES): CCCCCCCNC(=O)CCc1c[nH]c(N)n1

pIC50 (Pseudomonas aeruginosa [3]): 4.80
Structure (SMILES): CCCCCCC(CCCCCC)NC(=O)CCCc1c[nH]c(N)n1

pIC50 [15]: 4.57
Structure (SMILES): COC(=O)c1ccnc(C(F)F)c1
Activity (Pseudomonas aeruginosa [16]): 85%

MIC (Enterococcus faecalis [4]): 0.25 µg/mL (≈ 0.549 µM)
Structure (SMILES): NC(=O)c1cc(-c2csc(-c3ccc(-c4cnc(-c5ccccc5)s4)cc3)n2)ccc1O
MBEC (Enterococcus faecalis [5]): 0.008 µg/mL

MIC (Staphylococcus aureus [10]): > 270 µM
MIC (Staphylococcus aureus [11]): > 270 µM
MIC (Staphylococcus aureus [12]): > 270 µM
pIC50 [13]: 4.06
MIC [14]: > 270 µM
Structure (SMILES): CC(=O)/C(=N\Nc1cccc(Cl)c1)C(=O)O

MIC (Enterococcus faecalis [4]): 0.062 µg/mL (≈ 0.14 µM)
Structure (SMILES): O=[N+]([O-])c1ccc(-c2csc(-c3ccc(-c4cnc(-c5ccccc5)s4)cc3)n2)cc1
MBEC (Enterococcus faecalis [5]): 0.002 µg/mL

pIC50 [15]: 4.46
Structure (SMILES): O=C(c1ccc(Cl)cc1)c1ccnc(C(F)F)c1
Activity (Pseudomonas aeruginosa [16]): 71%
